What all share (assay type): cell-based, human
Assay [1] relates to global DNA methylation. The experiment in a line: Global DNA methylation (5-mC ELISA) assay in U87 cells. The note with it: U87 cells treated with C16; n = 3, p < 0.01. On the procedure:
Figure 7 Peptide derived from the STAT3‐binding sites of SHF is an effective GBM suppressive strategy. A) Binding model between SHF and STAT3 using ZDOCK server. […] B) IF staining determined the cell penetrability and nuclear‐localization of C16. U251 cells were incubated with C16 or SC for 2 h and performed IF staining using the indicated antibodies. Bars, 10 µm. C) The statical analysis of adsorption equilibrium assay detecting the binding of C16 and SC with recombinant STAT3. D) Pull‐down assay indicating C16 binds STAT3. GST‐STAT3 was incubated with C16 or SC for 2 h, and the pull‐down assay was performed using Anti‐His magnetic beads. E) IP assay showing the effect of C16 on STAT3 dimerization. […] The relative quantification of STAT3 dimerization was listed. […] The relative quantification of STAT3/DNMT1 interaction was listed. […] The relative quantification of STAT3/DNMT1 interaction was listed. […] Positive cells were quantified 20 randomly selected fields per mouse (n = 6, Student's t‐test, **p < 0.01). […]
Global DNA methylation status was quantified by the MethylFlash Global DNA Methylation (5‐mC) ELISA Easy Kit (Epigentek, Brooklyn, NY). Levels of 5‐methylcytosine (5‐mC) were calculated according to the manufacturer's instructions. In brief, the purified and quantified genomic DNA were bound to strip‐wells treated for high DNA affinity. […]
Background: An ELISA detects its analyte on a solid surface through an enzyme-linked reagent.

In assay [2] the test system is U87 cells. The experiment in a line: Cell growth assay (CCK-8), U87. The note with it: n=6. As for the experimental part: (§1) Cell growth was quantified using the Cell Counting Kit‐8 Assay Kit (Bimake, Houston, TX). Each experiment was repeated at least six times. For the colony formation assay, 800 cells were seeded into each well of a six‐well plate with soft agar (Agarose; Sigma, St. Louis, MO) and maintained in a medium containing 10% FBS for 14 days. The colonies were fixed with methanol and stained with 0.1% crystal violet; the clones containing at least 50 cells were counted using an inverted microscope.
(§2) Supplementary Fig. 9 C16 inhibits tumor growth and promotes chemosensitivity in vitro.
(§3) B. Colony formation of cells treated with SC or C16 (left) and the accompanying statistical
(§4) analysis (right; n=6, Student’s t-test, **P < 0.01).
(§5) C. Annexin V staining flow cytometry assay of cells simultaneously treated with Dox with SC or
(§6) C16 for 48 h (n=3, Student’s t-test, *P < 0.05, **P < 0.01).
(§7) (1 picture or pasted object on this page, not shown here)

In assay [3] the test system is GBM cells. The experiment in a line: Colony formation assay. The note with it: C16 vs SC; 25 uM stated adequate for subsequent experiments; n=6, P < 0.01. As for the experimental part: as §1, §2, §3, §4, §5, §6, §7

The results in this text go back to PMC9475553, “SHF Acts as a Novel Tumor Suppressor in Glioblastoma Multiforme by Disrupting STAT3 Dimerization” (Advanced Science, 2022).

Regarding “C16: peptide spanning SHF amino acids 388–421, palmitic acid at the N-terminus, amidated C-terminus, 3× His tags added to the C-terminal (PFSSVPEIVHHYASRKLPIKGAEHMSLLYPVAIR; palmitic acid at the N-terminus; amidated C-terminus; left off: 3× His tags, C-terminal, kept)”, the “global DNA methylation” value in assay [1] is listed as “significant decrease”. In addition, the cell growth inhibition entry in assay [2] is “inhibited cell growth with concentration dependence”. For the same substance, in assay [3], the colony growth entry is reported as “effectively impaired colony growth”.
